Measurements taken from US6511975B1, “Spiropiperidine derivatives” (Sankyo Company, Limited, priority 1998, dated 2003).

Legend:
Design in all cases: species or system guinea pig
Conditions in all cases: stated in words only
[1] = molecular target: T1, NK1 receptor (Cavia porcellus, UniProt P30547); test: NK1 Receptor Binding Test ([3H]-substance P, crude pulmonary membrane specimens)
T1 construct: Crude pulmonary membrane specimens were prepared from the lungs of male Hartley guinea pigs; from tissue; host or cells: guinea pig lung (crude membranes)
Experimental: NK1 Receptor Binding Test
(a) Preparation of Crude Pulmonary Membrane Specimens
Crude pulmonary membrane specimens were prepared from the lungs of male Hartley guinea pigs. Namely, the animals were sacrificed by exsanguination from the abdominal aorta under chloroform anesthesia followed promptly by excision of lung and respiratory tract tissue.
After perfusing the excised lungs in buffer (1) (50 mM Tris-HCl, pH 7.4), the lungs were sliced into thin sections and then homogenized in a buffer (2) (buffer (1) containing 120 mM sodium chloride and 5 mM potassium chloride) using a Polytron.
(§1) The tissue mass was removed from the homogenate by passing through a Nylon mesh (50 μm) and separating by centrifugation (30,000×g, 30 minutes, 4° C.).
(§2) The pellet was re-suspended in an ice-cooled Buffer (3) (Buffer (1) containing 10 mM EDTA and 300 mM potassium chloride) and after allowing to stand undisturbed for 60 minutes at 4° C., the resulting suspension was centrifuged and washed twice (30,000×g, 15 minutes, 4° C.).
(§3) The crude membrane specimens were stored at −80° C. until the time of use.
(§4) (b) Receptor Binding Test […]
The filter containing the membrane component was transferred to a mini plastic vial containing 4 ml of Picoflow and radioactivity was measured with a liquid scintillation counter (Beckman, LCS3500).

[2] = molecular target: T2, NK2 receptor (Cavia porcellus, UniProt Q64077); test: NK2 Receptor Binding Test ([3H]-SR-48968, crude ileal membrane specimens)
T2 construct: Crude membrane specimens were prepared from the ileum of male Hartley guinea pigs; from tissue; host or cells: guinea pig ileum (crude membranes)
T2 sequence (Q64077 1-402): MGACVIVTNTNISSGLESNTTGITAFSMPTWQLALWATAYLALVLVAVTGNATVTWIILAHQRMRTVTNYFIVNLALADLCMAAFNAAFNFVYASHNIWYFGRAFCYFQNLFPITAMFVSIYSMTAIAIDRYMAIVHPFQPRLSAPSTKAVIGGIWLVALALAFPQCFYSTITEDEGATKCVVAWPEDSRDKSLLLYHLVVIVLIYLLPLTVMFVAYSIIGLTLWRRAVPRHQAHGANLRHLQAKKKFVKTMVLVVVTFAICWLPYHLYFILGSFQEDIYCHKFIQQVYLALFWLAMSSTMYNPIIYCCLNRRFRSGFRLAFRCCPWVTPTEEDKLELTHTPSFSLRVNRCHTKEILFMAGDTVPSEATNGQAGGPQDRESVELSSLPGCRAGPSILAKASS
Experimental: NK2 Receptor Binding Test
(a) Preparation of Crude Ileal Membrane Specimens
Crude membrane specimens were prepared from the ileum of male Hartley guinea pigs. Namely, the animals were sacrificed by exsanguination from the abdominal aorta under chloroform anesthesia followed promptly by excision of the ileum.
The excised ileum was separated into its contents, secretions and epithelium by scraping with a slide glass. After slicing into thin sections in buffer (1) (50 mM Tris-HCl, pH 7.4), it was homogenized in buffer (2) (buffer (1) containing 120 mM sodium chloride and 5 mM potassium chloride) using a Polytron.
as §1, §2, §3, §4
The filter containing the membrane component was transferred to a mini plastic vial containing 4 ml of Picoflow and radioactivity was measured with a liquid scintillation counter (Beckman. LSC3500).

[3] = molecular target: T3, NK3 receptor (Cavia porcellus, UniProt P30098); test: NK3 Receptor Binding Test ([3H]-senktide, crude cerebral membrane specimens)
T3 construct: Crude membrane specimens were prepared from the brain of male Hartley guinea pigs; from tissue; host or cells: guinea pig brain (crude membranes)
T3 sequence (P30098 1-440): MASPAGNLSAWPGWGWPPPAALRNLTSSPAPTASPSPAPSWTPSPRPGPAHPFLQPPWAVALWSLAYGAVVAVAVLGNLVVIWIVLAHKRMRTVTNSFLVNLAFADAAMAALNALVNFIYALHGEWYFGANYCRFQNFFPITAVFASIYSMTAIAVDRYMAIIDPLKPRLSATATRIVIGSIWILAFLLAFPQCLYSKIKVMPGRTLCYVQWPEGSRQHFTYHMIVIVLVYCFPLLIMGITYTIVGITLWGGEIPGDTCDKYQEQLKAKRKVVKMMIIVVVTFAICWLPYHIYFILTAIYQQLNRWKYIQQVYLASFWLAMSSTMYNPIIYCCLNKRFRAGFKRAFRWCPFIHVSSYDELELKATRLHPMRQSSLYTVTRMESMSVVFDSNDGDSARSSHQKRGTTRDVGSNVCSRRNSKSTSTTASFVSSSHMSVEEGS
Experimental: NK3 Receptor Binding Test
(a) Preparation of Crude Cerebral Membrane Specimens
Crude membrane specimens were prepared from the brain of male Hartley guinea pigs. Namely, the animals were sacrificed by exsanguination from the abdominal aorta under chloroform anesthesia After perfusing with Buffer (1) (50 mM Tris-HCl, pH 7.4) from the right ventricle, the brain was enucleated immediately. The excised brain was homogenized in buffer (2) (buffer (1) containing 120 mM sodium chloride and 5 mM potassium chloride) using a Polytron. Tissue mass was removed from the homogenate by passing through a Nylon mesh (50 μm) and separating by centrifugation (30,000×g, 30 minutes, 4° C.). […]
The filter containing the membrane component was transferred to a mini plastic vial containing 4 ml of Picoflow and radioactivity was measured with a liquid scintillation counter (Aloka, LSC 3500).
In order to determine the radioactivity due to non-specific binding of [^3H]-senktide (binding to sites other than the receptor, for example, the filter), the Experiment was carried out by adding an excess amount of senktide (final concentration: 10 μM), and the radioactivity was measured.
The inhibitory ratio of senktide-receptor binding due to a test compound was calculated by the following equation. […]
A: radioactivity due to nonspecific binding
B: radioactivity in the test without the addition of a test compound […]

T1 sequence (P30547 whole entry): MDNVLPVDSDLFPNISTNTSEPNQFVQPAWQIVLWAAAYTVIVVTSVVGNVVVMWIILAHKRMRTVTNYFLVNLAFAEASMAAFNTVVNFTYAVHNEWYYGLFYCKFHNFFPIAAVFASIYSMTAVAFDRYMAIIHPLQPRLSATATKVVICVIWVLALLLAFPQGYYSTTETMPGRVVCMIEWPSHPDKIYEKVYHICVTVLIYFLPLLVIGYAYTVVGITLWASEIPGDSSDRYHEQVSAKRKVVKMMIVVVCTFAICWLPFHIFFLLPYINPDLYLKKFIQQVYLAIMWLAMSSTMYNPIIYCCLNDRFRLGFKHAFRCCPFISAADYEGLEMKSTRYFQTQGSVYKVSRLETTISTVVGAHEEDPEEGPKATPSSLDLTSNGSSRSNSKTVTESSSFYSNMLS

COc1cc(C(=O)N2CCO[C@](CCN3CCC4(CC3)c3ccccc3CC4O)(c3ccc(Cl)c(Cl)c3)C2)cc(OC)c1OC (stereo partly drawn) [Example 1, 1-{2-[(2R)-(3,4-Dichlorophenyl)-4-(3,4,5-trimethoxybenzoyl)morpholin-2-yl]ethyl}spiro[(2-hydroxy)indane-1,4′-piperidine]]
superior to those of Compound A: antagonistic activity against NK1 receptor [1] | antagonistic activity against NK2 receptor [2] | antagonistic activity against NK3 receptor [3]

COc1cc(C(=O)N2CCO[C@](CCN3CCC4(CC3)CC(O)c3ccccc34)(c3ccc(Cl)c(Cl)c3)C2)cc(OC)c1OC (stereo partly drawn) [Example 2, 1-{2-[(2R)-(3,4-Dichlorophenyl)-4-(3,4,5-trimethoxybenzoyl)mopholin-2-yl]ethyl}spiro[(3-hydroxy)indane-1,4′-piperidine]]
superior to those of Compound A: antagonistic activity against NK1 receptor [1] | antagonistic activity against NK2 receptor [2] | antagonistic activity against NK3 receptor [3]
